Measured values: patent EP4628519A1, “ORGANOGERMANIUM(IV) CARBOXYLATES AND MIXTURES OF GERMANIUM CARBOXYLATES WITH ORGANIC ACID ANHYDRIDES AS CATALYSTS” (Technische Universität Graz, priority 2024, dated 2025)
Blank lines part the entries; values can stand above or below the molecule they belong to.

Experiments:
[1] = Solubility of the germanium carboxylates in solvents (gravimetry or NMR)
Stability in water = conditions: result in words

solubility in organic solvents ([1]; result in words): good soluble
Structure (SMILES): COC(=O)C[CH2][Ge]([O]C(C)=O)([O]C(C)=O)[O]C(C)=O [(PME)Ge(OAc)3]

solubility in organic solvents ([1]; result in words): good soluble
Structure (SMILES): CC(=O)OC(=O)C[CH2][Ge]([O]C(C)=O)([O]C(C)=O)[O]C(C)=O [(PAA)Ge(OAc)3]

solubility in organic solvents ([1]; result in words): good soluble
Structure (SMILES): CC(=O)[O][Ge]([O]C(C)=O)([O]C(C)=O)[c]1ccccc1 [PhGe(OAc)3]

Continued, molecule first:

Structure (SMILES): CC(=O)[O][Ge]([O]C(C)=O)([O]C(C)=O)[O]C(C)=O [Ge(OAc)4, germanium(IV) tetraacetate]
stability in water (Stability in water): stable | solubility in H2O ([1]; H2O, result in words): good soluble | m(Ge(OAc)4) ([1]; Solvent Benzene, Method NMR): 2.7 g/L | m(Ge(OAc)4) ([1]; Solvent Chloroform, Method NMR): 4.8 g/L | m(Ge(OAc)4) ([1]; Solvent DCM, Method Gravimetry): 4.2 g/L | m(Ge(OAc)4) ([1]; Solvent H2O, Method Gravimetry): 170 g/L | m(Ge(OAc)4) ([1]; Solvent THF, Method Gravimetry): 4.3 g/L | m(Ge(OAc)4) ([1]; Solvent Toluene, Method Gravimetry): 2.6 g/L | solubility ([1]; in toluene, at room temperature): 2600 µg/mL | solubility in organic solvents ([1]; result in words): poorly soluble

Structure (SMILES): CCCCCCCCCCCC(=O)[O][Ge]([O]C(=O)CCCCCCCCCCC)([O]C(=O)CCCCCCCCCCC)[O]C(=O)CCCCCCCCCCC [Ge(OLau)4, germanium(IV) tetralaurate]
solubility, times higher ([1]; Ge(OLau)4 relative to Ge(OAc)4): around 2 times | solubility ([1]; in benzene, determined via NMR): 11000 µg/mL | solubility in organic solvents ([1]; result in words): poorly soluble
